Data reported in paper PMC8880313, “Discovery of Novel Andrographolide Derivatives as Antiviral Inhibitors against Human Enterovirus A71” (Pharmaceuticals, 2022).

Tests used:
EV-A71 Passage 21 = assay: Post-treatment assay on EV-A71 passaged 21 times with ZAF-47 (resistant mutant generation); assay type: cell-based, human enterovirus A71 (EV-A71); settings: supernatant from Passage 21, MOI = 1, RD cells
Procedure: Unfortunately, we were unable to obtain any resistant mutants as the viral titre for ZAF-47-treated remained lower than that of the controls at Passage 21. […] As a result, we hypothesize that ZAF-47 possibly targets host factor/s associated with EV-A71 RNA replication which makes it harder to generate resistant mutants.
Seeded 24-well plates, with 1.5 × 10^5 RD cells per well, were incubated overnight at 37 °C with 5% CO2. After which, the cells were subjected to EV-A71 infection (200 µL per well, MOI = 1) for 1 h before treatment with 800 µL of ZAF-47 at final concentration of 10 µM for 12 h at 37 °C with 5% CO2. Treatment with reduced serum DMEM and 0.1% DMSO functioned as negative and vehicle controls respectively. Upon 12 hpi, the supernatant was collected for viral plaque assay as well as to infect (200 µL) another seeded plate.

[1] = test system: EV-A71 proteins, VP2 and VP0; assay: SDS-PAGE and Western blot of EV-A71 proteins; assay type: cell-based, human enterovirus A71 (EV-A71) strain 41; settings: 6 h
Procedure: Since ZAF-47 possibly targets EV-A71 post-entry stages, we were interested in looking at the effect of ZAF-47 on EV-A71 protein expression. To do so, we first infected RD cells with EV-A71. We then treated the infected cells with different concentration of ZAF-47 for 6 h and collected the cell lysates for SDE-PAGE and Western blot. […] Since ZAF-47 acts on the post-entry stages and reduces EV-A71 protein expression, we hypothesized that ZAF-47 could be inhibiting RNA replication or protein translation, or possibly both, resulting in reduced viral protein expression.
Seeded 24-well plates, with 1.5 × 10^5 RD cells per well, were incubated overnight at 37 °C with 5% CO2. After which, the cells were subjected to EV-A71 infection (100 µL per well, MOI = 1) for 1 h. Reduced serum DMEM was used for mock-infection. The infected cells were then rinsed with PBS twice before treatment with 0.1% DMSO or ZAF-47 at various concentrations for 6 h at 37 °C with 5% CO2. After 6 h of drug treatment, cells were lysed with 100 µL of 1x Laemmli buffer and cell lysate was stored at −80 °C.
The cell lysate samples were subsequently boiled for 10 min at 100 °C and loaded on to a 10% acrylamide gel. SDS-PAGE was run for 2.5 h at 100V to separate the proteins. Bio Basic 10–250 kDa Protein Ladder BZ0011G (Bio Basic, Markham, Canada) was also loaded as a molecular-weight size marker. […]

How did the “inhibition of passaged virus” value (EV-A71 Passage 21) turn out when `CC(=O)OC[C@]1(C)C(=O)CC[C@@]2(C)C(C/C=C3/C(=O)OC[C@@H]3Oc3cccc4cccnc34)=C(C)CC[C@@H]21` [ZAF-47, (14β)-(8′-Quinolinoxy)-3-ketone-9-dehydro-17-hydro-19-acetoxy–andrographolide] was run?
The value was “still capable of inhibiting the passaged virus dose-dependently”.

And the “VP0 band intensity reduction in comparison to the control” value ([1]; 5 µM, normalized with β-actin)?
The value was 35 fold.

And the VP2 band ([1]; different concentrations)?
The VP2 band was “not with any ZAF-47 treatment”.
